According to patent US20080124385A1, “Methods for Transmembrane Treatment and Prevention of Otitis Media” (Piedmont Pharmaceuticals,LLC., priority 2004, published 2008):

Test system: Haemophilus influenzae
Assay: Chinchilla model of otitis media (middle ear inoculated with Haemophilus influenzae)
Type: in vivo, Chinchilla langer
Conditions: oral gavage, 20 mg/kg BID for 6 days; 3 animals/group; positive control
Protocol: To establish and evaluate the animal model, each chinchilla was inoculated with Haemophilus influenzae directly into the middle ear of each ear by transbullar injection at a concentration of 100 cfu in a volume of 0.2 mL. Each chinchilla was given an otoscope ear exam prior to being placed on study. Dosing with a composition of the invention or control oral amoxicillin began approximately 48 hours after the bacterial inoculation. All animals were administered Buprenorphine 0.05 mg/kg twice a day subcutaneously for analgesia for the duration of the study.
At the end of the dosing period (8 days after bacterial inoculation), each animal was euthanized, their ear canals washed with saline, and examined. In particular, samples from the middle ear from each chinchilla were collected. One ear sample was cultured overnight per laboratory procedures. Approximately 24 hours after the samples plated out, they were counted and the colony forming units (cfu) recorded.
The positive control article (amoxicillin) was administered orally by gavage to three chinchillas twice per day for 6 days, approximately 8 hours apart. 2, 4 or 6 drops of ofloxacin 0.3% liposome formulation or ciprofloxacin 0.3% liposome formulation were administered to two groups of three chinchillas each as a maximal feasible dose for these animals.

CC1(C)S[C@@H]2[C@H](NC(=O)[C@H](N)c3ccc(O)cc3)C(=O)N2[C@H]1C(=O)O [Amoxicillin, amoxicillin]
Active infection present after 6 days: No active infection present in any animal
